From PMC11909904 (Cardiovascular Diabetology, 2025)

Biological target: T1, GPR30 (Rattus norvegicus, UniProt O08878)
T1 sequence (O08878 1-375): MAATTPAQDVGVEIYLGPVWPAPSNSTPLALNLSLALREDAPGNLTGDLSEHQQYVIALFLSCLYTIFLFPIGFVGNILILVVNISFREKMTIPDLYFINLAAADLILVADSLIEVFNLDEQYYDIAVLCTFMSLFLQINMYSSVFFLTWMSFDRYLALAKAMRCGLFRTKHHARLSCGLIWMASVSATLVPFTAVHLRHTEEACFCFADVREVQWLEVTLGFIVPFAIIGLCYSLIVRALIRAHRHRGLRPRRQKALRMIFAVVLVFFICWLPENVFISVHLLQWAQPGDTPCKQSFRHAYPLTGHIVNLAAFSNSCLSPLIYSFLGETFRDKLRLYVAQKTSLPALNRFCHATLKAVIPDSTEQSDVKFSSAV
Assay: CETSA in intact RVECs and lysates
Type: biochemical
Conditions: 30 µM Rd (CETSA)

## CC(C)=CCC[C@](C)(O[C@@H]1O[C@H](CO)[C@@H](O)[C@H](O)[C@H]1O)[C@H]1CC[C@]2(C)[C@@H]1[C@H](O)C[C@@H]1[C@@]3(C)CC[C@H](O[C@@H]4O[C@H](CO)[C@@H](O)[C@H](O)[C@H]4O[C@@H]4O[C@H](CO)[C@@H](O)[C@H](O)[C@H]4O)C(C)(C)[C@@H]3CC[C@]12C [Rd, Ginsenoside Rd]
  CETSA: the incubation with Rd stabilized GPR30 in heat-denatured intact RVECs and cell lysates
